Data: paper PMC12447640, “Design, synthesis, and biological assessment of a novel series of coumarin-tethered thiazole derivatives as potential antibacterial agents” (Frontiers in Chemistry, 2025)

Biological target: T1, DNA gyrase B (E. coli DNA gyrase, supercoiling) (Escherichia coli, UniProt P0AES6)
T1 construct: gene gyrB; with DNA gyrase subunit A (GyrA)
Assay: E. coli DNA gyrase supercoiling microplate assay kit (Inspiralis)
Format: biochemical

| Structure (SMILES) | IC50 [µM] |
| --- | --- |
| CC(=NNc1nc(C)c(N=Nc2ccc(F)cc2)s1)c1cc2ccc(O)cc2oc1=O [6c, 3-(-1-{2-[5-((4-fluorophenyl)diazenyl)-4-methylthiazol-2-yl]hydrazono}ethyl)-7-hydroxy-2H-chromen-2-one] | 93.4 |
| CC(=NNc1nc(C)c(N=Nc2ccccc2)s1)c1cc2ccc(O)cc2oc1=O [6a, 7-Hydroxy-3-(-1-{2-[4-methyl-5-(phenyldiazenyl)thiazol-2-yl]hydrazono}ethyl)-2H-chromen-2-one] | 56.6 |
